Reference: patent US20210078972A1, “QUINOLINE OR QUINAZOLINE COMPOUND AND APPLICATION THEREOF” (HAIHE BIOPHARMA CO., LTD., priority 2018, published 2021)

Columns and labels:
Assay type in all cases: biochemical
[1] = target: T1, AXL kinase domain recombinant protein (Homo sapiens, UniProt P30530); experiment: AXL kinase inhibition, ELISA; details: ATP 5 μM
T1 construct: the AXL kinase domain recombinant protein (eurofins, 14-512); purchased eurofins 14-512
T1 sequence (P30530 536-807 limits assumed): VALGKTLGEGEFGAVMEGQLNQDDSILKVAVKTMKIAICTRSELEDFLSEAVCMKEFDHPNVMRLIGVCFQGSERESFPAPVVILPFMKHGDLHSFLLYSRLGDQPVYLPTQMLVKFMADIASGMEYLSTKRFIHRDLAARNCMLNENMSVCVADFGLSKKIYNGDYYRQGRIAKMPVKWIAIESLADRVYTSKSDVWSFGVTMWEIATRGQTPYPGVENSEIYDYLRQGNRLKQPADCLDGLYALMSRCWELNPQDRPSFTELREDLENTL
Procedure: Detection of the activity of kinase: Enzyme-linked immunosorbent assay (ELISA) technology was used to detect the inhibitory activities of the compounds against the kinase. […] After the liquid in the well was discarded, the plate was washed three times with T-PBS (PBS containing 0.1% Tween-20), 200 μL T-PBS per well, 5 minutes for each time. The enzyme label plate was dried in an oven at 37° C. for 1-2 hours. To each well was added 50 μL of ATP solution diluted with reaction buffer (50 mM HEPES, pH 7.4, 50 mM MgCl2, 0.5 mM MnCl2, 0.2 mM Na3VO4, 1 mM DTT) with a final concentration of 5 μM. […] Two wells with no enzyme for control are required for each experiment. The plate was incubated on a shaker (100 rpm) at 37° C. and reacted for 1 hour. The plate was washed three times with T-PBS. 100 μ/well of primary antibody PY99 dilution was added and the plate was reacted in a shaker at 37° C. for 0.5 hour. The plate was washed three times with T-PBS. 100 μ/well of secondary antibody horseradish peroxidase-labeled goat anti-mouse IgG dilution was added and the plate was reacted in a shaker at 37° C. for 0.5 hour. The plate was washed three times with T-PBS. 2 mg/ml of OPD color solution was added with 100 μ/well (diluted with 0.1 M citric acid-sodium citrate buffer (pH=5.4) containing 0.03% H2O2), and the plate was reacted at 25° C. in the dark for 1-10 minutes. (Ultrasound is required for the dissolution of OPD, and the color solution needs to be prepared for immediate use). 50 μ/well of 2 M H2SO4 was added to stop the reaction, and the wavelength-adjustable enzyme-labeling instrument SPECTRA MAX 190 was used to read the data at a wavelength of 490 nm.
The inhibition rate of the sample was obtained by the following formula: […]
The IC50 values were obtained by regression with the four-parameter method using the software attached to the enzyme-labeling instrument.

Flt3 kinase = target: T2, Flt3 kinase (Homo sapiens, UniProt P36888); experiment: Flt3 kinase inhibition, Z'-LYTE FRET; details: ATP 500 μM
T2 construct: purchased life PV6253
T2 sequence (P36888 27-993): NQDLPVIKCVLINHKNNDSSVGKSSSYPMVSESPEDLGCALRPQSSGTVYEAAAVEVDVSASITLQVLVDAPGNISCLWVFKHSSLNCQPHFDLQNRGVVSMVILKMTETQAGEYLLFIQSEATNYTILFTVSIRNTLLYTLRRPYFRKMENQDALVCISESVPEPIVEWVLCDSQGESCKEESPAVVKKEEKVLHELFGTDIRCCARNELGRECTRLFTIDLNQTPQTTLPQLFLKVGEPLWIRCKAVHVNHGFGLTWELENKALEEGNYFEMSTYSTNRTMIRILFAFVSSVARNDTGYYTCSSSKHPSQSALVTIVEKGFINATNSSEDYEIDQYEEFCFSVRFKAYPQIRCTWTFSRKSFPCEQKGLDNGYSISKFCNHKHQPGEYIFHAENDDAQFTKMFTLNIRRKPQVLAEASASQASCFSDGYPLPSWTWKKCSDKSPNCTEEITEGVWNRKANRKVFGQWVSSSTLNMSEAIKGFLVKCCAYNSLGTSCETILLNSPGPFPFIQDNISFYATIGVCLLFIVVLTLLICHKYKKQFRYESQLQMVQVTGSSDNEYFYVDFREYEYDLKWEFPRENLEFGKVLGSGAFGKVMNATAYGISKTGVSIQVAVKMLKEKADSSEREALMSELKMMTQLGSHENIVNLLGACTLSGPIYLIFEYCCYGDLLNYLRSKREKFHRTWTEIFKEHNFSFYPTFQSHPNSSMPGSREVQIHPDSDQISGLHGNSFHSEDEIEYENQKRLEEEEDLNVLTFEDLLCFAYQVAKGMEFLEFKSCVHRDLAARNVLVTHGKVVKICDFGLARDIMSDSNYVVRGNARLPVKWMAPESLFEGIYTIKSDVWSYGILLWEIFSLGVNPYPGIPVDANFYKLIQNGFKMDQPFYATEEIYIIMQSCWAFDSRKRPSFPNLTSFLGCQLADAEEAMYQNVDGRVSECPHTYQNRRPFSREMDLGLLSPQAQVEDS
From the text: (§1) Detection of the activity of kinase: the inhibitory activities of the compounds against Flt3 kinase (life, PV6253) were detected through a second-order reaction by the Z′-LYTE™ technology (detected by fluorescence, enzyme-coupled form, based on the difference in a sensitivity of phosphorylated and non-phosphorylated polypeptides to proteolytic cleavage), based on the principle of fluorescence resonance energy transfer (FRET), using Z′-LYTE™ FRET peptide substrate (Z′-LYTE™ Tyrosine 2 Peptide Substrate, Invitrogen, PV3191).
Enzymatic reaction: To a 384-well plate were added 5 μL of enzyme-substrate system (50 mM HEPES, pH 7.5, 0.01% BRU-35, 10 mM MgC2, 1 mM EGTA), 2.5 μL of a compound (concentration gradient) and 2.5 μL of a mixed solution of ATP (a final concentration of a substrate Z′-LYTE™ Tyrosine 2 Peptide Substrate was 2 μM, and a final concentration of ATP was 500 μM), and then the plate was incubated at 37° C. in the dark for 1 h.
Detecting reaction: 5 μL of Development Solution (1:64 dilution) was added to each well and the plate was incubated at 37° C. in the dark for 1 h, then 5 μL of Stop Reagent was added.
(§2) The data analysis method is as follows:
(§3) Phosphorylation ratio=1−{(emission ratio×F100%−C100%)/[C0%−C100%+emission ratio×(F100%−F0%)]}×100;
(§4) Inhibition rate=100×(1−compound phosphorylation ratio/negative control phosphorylation ratio).
(§5) The IC50 values were calculated by GraphPad Prism software.

AXL kinase = target: T3, AXL kinase (Homo sapiens, UniProt P30530); experiment: AXL kinase inhibition, Z'-LYTE FRET; details: ATP 50 μM
T3 construct: purchased eurofins 14-500
T3 sequence (P30530 473-894 limits assumed): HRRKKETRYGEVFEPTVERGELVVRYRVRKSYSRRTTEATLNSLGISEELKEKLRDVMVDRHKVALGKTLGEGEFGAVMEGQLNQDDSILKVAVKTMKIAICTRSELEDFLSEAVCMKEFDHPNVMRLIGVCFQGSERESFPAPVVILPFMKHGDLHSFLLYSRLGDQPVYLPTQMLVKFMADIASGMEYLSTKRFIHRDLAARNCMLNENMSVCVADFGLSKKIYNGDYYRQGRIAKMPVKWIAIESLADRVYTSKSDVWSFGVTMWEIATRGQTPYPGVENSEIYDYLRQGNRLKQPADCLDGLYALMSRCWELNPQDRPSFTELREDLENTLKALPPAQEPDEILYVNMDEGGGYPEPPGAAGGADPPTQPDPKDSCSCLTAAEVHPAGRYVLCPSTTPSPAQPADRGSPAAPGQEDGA
From the text: as §1, with “AXL” for “Flt3”, “(eurofins, 14-500)” for “(life, PV6253)”, “6” for “2”, “PV4122).” for “PV3191).”
Enzymatic reaction: To a 384-well plate was added 5 μL of enzyme-substrate system (50 mM HEPES, pH 6.5, 0.01% BRU-35, 10 mM MgC2, 1 mM EGTA, 0.02% NaNA), and 5 nL of a compound (concentration gradient) was transferred thereto using an echo520 ultramicro-liquid pipetting system. After the plate was shaken at room temperature for 10-20 min, 25 nL of ATP (a final concentration of 50 μM) was transferred thereto using the echo520 ultramicro-liquid pipetting system. After shaking and well mixing, the mixture was centrifuged and reacted at 30° C. in the dark for 1.5 h.
as §2, §3, §4, §5

Row | IC50 [1] | IC50 (Flt3 kinase) | IC50 (AXL kinase) | SMILES
1 |  |  | 2.3 nM | COc1cc2c(Oc3ccc(NC(=O)c4c(C)n(C)c5ccc(OC(F)(F)F)cc5c4=O)cc3F)ncnc2cc1OCCN1CCCC1 [TL-231, N-(3-fluoro-4-((6-methoxy-7-(2-(pyrrolidin-1-yl)ethoxy)quinazolin-4-yl)oxy)phenyl)-1,2-dimethyl-4-oxo-6-(trifluoromethoxy)-1,4-dihydroquinoline-3-carboxamide]
2 |  |  | 1.2 nM | COc1cc2c(Oc3ccc(NC(=O)c4c(C)n(C)c5ccc(OC(F)(F)F)cc5c4=O)cc3F)ncnc2cc1OCCCN1CCN(C)CC1 [TL-238]
3 | 1.5 nM | 5.2 nM |  | COc1cc2c(Oc3ccc(NC(=O)c4c(C)n(C)c5ccc(OC(F)(F)F)cc5c4=O)cc3F)ncnc2cc1OCCCN1CCCC1 [TL-212, N-(3-fluoro-4-((6-methoxy-7-(3-(pyrrolidin-1-yl)propoxy)quinazolin-4-yl)oxy)phenyl)-1,2-dimethy 1-4-oxo-6-(trifluoromethoxy)-1,4-dihydroquinoline-3-carboxamide]
4 | 2 nM | 9.2 nM |  | COc1cc2c(Oc3ccc(NC(=O)c4c(C)n(C)c5ccc(OC(F)(F)F)cc5c4=O)cc3F)ncnc2cc1OCCN1CCOCC1 [TL-209, N-(3-fluoro-4-((6-methoxy-7-(2-morpholinoethoxy)quinazolin-4-yl)oxy)phenyl)-1,2-dimethyl-4-ox o-6-(trifluoromethoxy)-1,4-dihydroquinoline-3-carboxamide]

Second part, the molecule before the results:

Row | SMILES | IC50 [1] | IC50 (Flt3 kinase) | IC50 (AXL kinase)
5 | COCCCOc1cc2c(Oc3ccc(NC(=O)c4c(C)n(C)c5ccc(OC(F)(F)F)cc5c4=O)cc3F)ncnc2cc1OC [TL-199, N-(3-fluoro-4-((7-methoxy-6-(3-methoxypropoxy)quinazolin-4-yl)oxy)phenyl)-1,2-dimethyl-4-oxo-6-(trifluoromethoxy)-1,4-dihydroquinoline-3-carboxamide] | 1.8 nM | 25.8 nM | 
6 | CCCOc1cc2ncnc(Oc3ccc(NC(=O)c4c(C)n(C)c5ccc(OC(F)(F)F)cc5c4=O)cc3F)c2cc1OC [TL-240, N-(3-fluoro-4-((6-methoxy-7-propoxyquinazolin-4-yl)oxy)phenyl)-1,2-dimethyl-4-oxo-6-(trifluoromethoxy)-1,4-dihydroquinoline-3-carboxamide] |  |  | 6.1 nM
7 | COc1cc2c(Oc3ccc(NC(=O)c4c(C)n(C)c5ccc(OC(F)(F)F)cc5c4=O)cc3F)ncnc2cc1OCCN1CCCCC1 [TL-213, N-(3-fluoro-4-((6-methoxy-7-(2-(piperidin-1-yl)ethoxy)quinazolin-4-yl)oxy)phenyl)-1,2-dimethyl-4-oxo-6-(trifluoromethoxy)-1,4-dihydroquinoline-3-carboxamide] | 2.2 nM | 6.4 nM | 
8 | COCCCCOc1cc2ncnc(Oc3ccc(NC(=O)c4c(C)n(C)c5ccc(OC(F)(F)F)cc5c4=O)cc3F)c2cc1OC [TL-204, N-(3-fluoro-4-((6-methoxy-7-(4-methoxybutoxy)quinazolin-4-yl)oxy)phenyl)-1,2-dimethyl-4-oxo-6-(trifluoromethoxy)-1,4-dihydroquinoline-3-carboxamide] | 1.6 nM | 11.2 nM | 
9 | COCCOc1cc2ncnc(Oc3ccc(NC(=O)c4c(C)n(C)c5ccc(OC(F)(F)F)cc5c4=O)cc3F)c2cc1OCCOC [TL-197, N-(4-((6,7-bis(2-methoxyethoxy)quinazolin-4-yl)oxy)-3-fluorophenyl)-1,2-dimethyl-4-oxo-6-(trifluoromethoxy)-1,4-dihydroquinoline-3-carboxamide] | 4.2 nM | 4.7 nM | 
10 | COc1cc2ncnc(Oc3ccc(NC(=O)c4c(C)n(C)c5ccc(OC(F)(F)F)cc5c4=O)cc3F)c2cc1OC [TL-198, N-(4-((6,7-dimethoxyquinazolin-4-yl)oxy)-3-fluorophenyl)-1,2-dimethyl-4-oxo-6-(trifluoromethoxy)-1,4-dihydroquinoline-3-carboxamide] | 2.1 nM | 2.3 nM | 
11 | COc1cc2c(Oc3ccc(NC(=O)c4c(C)n(C)c5ccc(OC(F)(F)F)cc5c4=O)cc3F)ccnc2cc1OCCCN1CCOCC1 [CCB-310, N-(3-fluoro-4-((6-methoxy-7-(3-morpholinopropoxy)quinolin-4-yl)oxy)phenyl)-1,2-dimethyl-4-oxo-6-(trifluoromethoxy)-1,4-dihydroquinoline-3-carboxamide] | 1.8 nM | 9.5 nM | 
